Laboratory results from US11484579B2, “Vitamins and alpha keto acid compositions for use in a treatment program for chronic kidney disease patients” (priority 2017, dated 2022).

Assay: Certificate of analysis: solubility
Format: physicochemical
Conditions: batch SCP-PAMA-03; specification: Soluble in water

O=C(Cc1ccccc1)C(=O)[O][Mg][O]C(=O)C(=O)Cc1ccccc1 [Alpha keto phenylalanine magnesium]
Solubility: Soluble in water
